# Experimental data taken from patent publication US20080221205A1, “FURAN DERIVATIVES FOR PREVENTING AND CURING OSTEOPOROSIS AND PHARMACEUTICAL COMPOSITIONS CONTAINING THE SAME” (priority 2002, published 2008).
# Experiments:
# MG-63 osteoblasts = test: Proliferation of MG-63 osteoblasts (3H-thymidine incorporation); type: cell-based, human; conditions: concentration not given
# Excerpt: (§1) In the following tests, three kinds of cell lines were used. The human osteosarcoma cell lines, MG-63 (ATCC No. CRL-1427) and HOS (ATCC No. CRL-1543), and mouse muscle C2C12 muscle cells (ATCC No. CRL-1772) were purchased from ATCC (American Type Culture Collection, Rockville, USA), and cultured in Dulbecco's modified Eagle's medium (DMEM) supplemented with 10% fetal bovine serum (FBS).
# In order to indirectly evaluate cytotoxicity of the Compound 1 and investigate effect of the Compound 1 naturally extracted on obsteoblast proliferation, proliferation of MG-63 osteoblasts was investigated by measuring the amount of ^3H-thymidine incorporated into cellular DNA upon DNA replication. The cells were aliquotted onto 24-well plates at a density of 2×10^4 cells per well. The next day, after exchanging culture medium to medium containing 1% FBS, the cells were treated with the compound 1 serially diluted at various concentrations and further cultured for 48 hrs. Four hours before finishing the culture of 48 hrs, ^3H-thymidine was added to the medium in an amount of 3 μCi per well. The cells were washed with phosphate buffer, and treated with 5% trichloroacetic acid (TCA) pre-cooled on ice. Each of the separated TCA-insoluble fractions was dissolved in 0.1 M NaOH. With a portion of each fraction, ^3H-thymidine uptake by the cells was measured using a liquid scintillation counter.
# [1] = tested on: ALP activity in HOS cells; test: Alkaline phosphatase (osteoblast marker enzyme) activity in HOS cells; type: cell-based, human; conditions: concentration not given
# Excerpt: as §1
# To examine whether the Compound 1 affects positively or negatively osteoblast activity, alkaline phosphatase (ALP) activity was measured. HOS cells were aliquotted onto a 96-well microplate at a density of 5×10^3 cells per well, and cultured. When forming a monolayer, the cells were treated with the naturally extracted compound (Compound 1) at prescribed concentrations. After incubation in 10% FBS-containing DMEM for 48 hrs, the cells were treated with 0.1% Triton X-100/saline for 30 min at 37° C. A portion of each cell lysate was reacted with 0.1 N glycine-NaCh buffer (pH 10.4) for 30 min at 37° C. in the presence of 100 mM nitrophenyl phosphate (PNPP) as a substrate of alkaline phosphate. The amount of PNP (ρ-nitrophenol) released from the substrate PNPP was determined by measuring absorbance at 405 nm. Protein amount was determined by a modified Lowry method, and enzyme activity was designated as nmol substrate cleaved/h/mg protein.
# osteoclast formation = test: Inhibition rate of furan derivatives versus osteoclast formation (TRAP staining); type: cell-based, mice; conditions: TRAP-positive multinucleated cells, untreated control set as 100%
# How it was run: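 Non-adherent mouse bone-marrow osteoclast precursors cultured 8 days with 20 ng/ml M-CSF and 30 ng/ml RANKL in presence of compound. TRAP-positive cells with ≥3 nuclei counted; inhibition expressed relative to untreated control set at 100%.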
# [2] = listed as compound prepared in Example 1
smiles,measurement,setting,value
"O=Cc1ccc(CO)o1 [Compound 1, 5-hydroxymethylfuran-2-carboxyaldehyde]",Proliferation rate of osteoblasts compared to control,MG-63 osteoblasts,over 105%
same,Proliferation rate of osteoblasts compared to control,MG-63 osteoblasts; [2],≥ 105%
same,Alkaline phosphatase activity compared to control,[1],about 121%
same,Alkaline phosphatase activity compared to control,[1]; [2],120%
same,"Inhibition rate against osteoclast formation, %",osteoclast formation; 0.1 μM,0%
same,"Inhibition rate against osteoclast formation, %",osteoclast formation; 1 μM,0%
same,"Inhibition rate against osteoclast formation, %",osteoclast formation; 10 μM,30%
